The source made the active and inactive calls. The rule behind the calls is not given here.
Tests used:
[1] = system: MDA-MB-231; assay: Cytotoxicity against human MDA-MB-231 cells assessed as cell inhibition measured after 72 hrs by MTT assay; assay type: functional, cell-based; conditions: MDA-MB-231, 72 h
[2] = Reduction in Cyclin B1 level in human MDA-MB-231 cells assessed as fold change in presence of 3-MA at 15 uM measured after 72 hrs by Western blot analysis relative to control; assay type: functional
[3] = system: SGC-7901; assay: Induction of cell cycle arrest in human SGC-7901 cells assessed as accumulation of cells at G2/M phase at 5 uM incubated for 24 hrs by PI staining based flow cytometric analysis (reference value: 0.18%); assay type: functional
[4] = system: MDA-MB-231; assay: Induction of cell cycle arrest in human MDA-MB-231 cells assessed as accumulation of cells at S phase at 5 uM incubated for 24 hrs by PI staining based flow cytometric analysis (reference value: 29.80%); assay type: functional
[5] = Drug uptake in human MDA-MB-231 cells assessed as accumulation by measuring lysosome-specific fluorescent signals at 2 uM incubated for 1 hrs by confocal laser-scanning microscopic analysis; assay type: ADME, cell-based; conditions: mda-mb-231, 1 h
[6] = system: MDA-MB-231; assay: Induction of autophagy in human MDA-MB-231 cells assessed as fold increase in Lamp1 level at 10 uM measured after 6 hrs by Western blot analysis relative to control; assay type: functional
[7] = system: SGC-7901; assay: Induction of cell cycle arrest in human SGC-7901 cells assessed as accumulation of cells at G2/M phase at 10 uM incubated for 24 hrs by PI staining based flow cytometric analysis (reference value: 0.18%); assay type: functional
[8] = system: MDA-MB-231; assay: Induction of autophagy in human MDA-MB-231 cells assessed as fold increase in LC3I/II protein level at 10 uM measured after 6 hrs by Western blot analysis relative to control; assay type: functional
[9] = system: SGC-7901; assay: Induction of cell cycle arrest in human SGC-7901 cells assessed as accumulation of cells at G2/M phase at 20 uM incubated for 24 hrs by PI staining based flow cytometric analysis (reference value: 0.18%); assay type: functional
[10] = system: MDA-MB-231; assay: Induction of cell cycle arrest in human MDA-MB-231 cells assessed as accumulation of cells at G0/G1 phase at 50 uM incubated for 24 hrs by PI staining based flow cytometric analysis (reference value: 62.73%); assay type: functional
[11] = system: MDA-MB-231; assay: Induction of cell cycle arrest in human MDA-MB-231 cells assessed as accumulation of cells at G0/G1 phase at 10 uM incubated for 24 hrs by PI staining based flow cytometric analysis (reference value: 62.73%); assay type: functional
[12] = Drug uptake in human MDA-MB-231 cells assessed as accumulation by measuring fluorescent signals at 1 uM incubated for 1 hrs by confocal laser-scanning microscopic analysis; assay type: ADME, cell-based; conditions: mda-mb-231, 1 h
[13] = system: MDA-MB-231; assay: Induction of cell cycle arrest in human MDA-MB-231 cells assessed as accumulation of cells at S phase at 50 uM incubated for 24 hrs by PI staining based flow cytometric analysis (reference value: 29.80%); assay type: functional
[14] = system: MDA-MB-231; assay: Induction of autophagy in human MDA-MB-231 cells assessed as fold increase in Lamp1 level at 15 uM measured after 6 hrs by Western blot analysis relative to control; assay type: functional
[15] = Reduction in Cyclin B1 level in human MDA-MB-231 cells assessed as fold change at 15 uM measured after 72 hrs by Western blot analysis relative to control; assay type: functional
[16] = Reduction in Cyclin B1 level in human MDA-MB-231 cells assessed as fold change at 10 uM measured after 72 hrs by Western blot analysis relative to control; assay type: functional
[17] = system: MDA-MB-231; assay: Induction of autophagy in human MDA-MB-231 cells assessed as fold increase in LC3I/II protein level at 5 uM measured after 6 hrs by Western blot analysis relative to control; assay type: functional
[18] = Drug uptake in human MDA-MB-231 cells assessed as accumulation by measuring lysosome-specific fluorescent signals in presence of excess eudistomin Y1 at 1 uM incubated for 1 hrs by confocal laser-scanning microscopic analysis; assay type: ADME, cell-based; conditions: mda-mb-231, 1 h
[19] = system: MDA-MB-231; assay: Induction of autophagy in human MDA-MB-231 cells assessed as increase in lysosomal membrane permeabilization by measuring red fluorescence in cytoplasm at 10 to 20 uM measured after 24 hrs by acridine orange (AO) staining assay; assay type: functional, cell-based; conditions: dose 10-20 µM
[20] = system: LS180; assay: Cytotoxicity against human LS180 cells assessed as cell inhibition measured after 72 hrs by MTT assay; assay type: functional, cell-based; conditions: LS180, 72 h
[21] = system: HepG2; assay: Cytotoxicity against human HepG2 cells assessed as cell inhibition measured after 72 hrs by MTT assay; assay type: functional, cell-based; conditions: HepG2, 72 h
[22] = system: MDA-MB-231; assay: Induction of autophagy in human MDA-MB-231 cells assessed as fold increase in LC3I/II protein level at 15 uM measured after 6 hrs by Western blot analysis relative to control; assay type: functional
[23] = system: A549; assay: Cytotoxicity against human A549 cells assessed as cell inhibition measured after 72 hrs by MTT assay; assay type: functional, cell-based; conditions: A549, 72 h
[24] = system: SGC-7901; assay: Induction of cell cycle arrest in human SGC-7901 cells assessed as accumulation of cells at G2/M phase at 50 uM incubated for 24 hrs by PI staining based flow cytometric analysis (reference value: 0.18%); assay type: functional
[25] = system: SGC-7901; assay: Induction of cell cycle arrest in human SGC-7901 cells assessed as accumulation of cells at G0/G1 phase at 50 uM incubated for 24 hrs by PI staining based flow cytometric analysis (reference value: 59.67%); assay type: functional
[26] = system: SGC-7901; assay: Induction of cell cycle arrest in human SGC-7901 cells assessed as accumulation of cells at S phase at 50 uM incubated for 24 hrs by PI staining based flow cytometric analysis (reference value: 40.15%); assay type: functional
[27] = Reduction in CDK1 level in human MDA-MB-231 cells assessed as fold change in presence of 3-MA at 15 uM measured after 72 hrs by Western blot analysis relative to control; assay type: functional
[28] = system: SGC-7901; assay: Cytotoxicity against human SGC-7901 cells assessed as cell inhibition measured after 72 hrs by MTT assay; assay type: functional, cell-based; conditions: SGC-7901, 72 h
[29] = system: SGC-7901; assay: Induction of cell cycle arrest in human SGC-7901 cells assessed as accumulation of cells at G0/G1 phase at 10 uM incubated for 24 hrs by PI staining based flow cytometric analysis (reference value: 59.67%); assay type: functional
[30] = system: MDA-MB-231; assay: Antiproliferative activity against human MDA-MB-231 cells assessed as cell viability in presence of 3-MA at 10 to 50 uM measured after 72 hrs by MTT assay; assay type: functional, cell-based; conditions: dose 10-50 µM
[31] = system: MDA-MB-231; assay: Induction of cell cycle arrest in human MDA-MB-231 cells assessed as accumulation of cells at G0/G1 phase at 5 uM incubated for 24 hrs by PI staining based flow cytometric analysis (reference value: 62.73%); assay type: functional
[32] = system: MDA-MB-231; assay: Induction of autophagy in human MDA-MB-231 cells assessed as increase in acidic vesicle formation by measuring fluorescence signal from lyso-red Tracker at 10 to 20 uM measured after 24 hrs by Lyso-RedTracker staining based confocal laser-scanning microscopic analysis; assay type: functional, cell-based; conditions: dose 10-20 µM
[33] = system: MDA-MB-231; assay: Induction of cell cycle arrest in human MDA-MB-231 cells assessed as accumulation of cells at G2/M phase at 50 uM incubated for 24 hrs by PI staining based flow cytometric analysis (reference value: 7.47%); assay type: functional

With `COc1ccc(Cn2c3ccccc3c3ccnc(C(=O)c4ccccc4)c32)cc1` as the compound, how does the IC50 [1] read?
The IC50 was 20.5 µM.

What about the “fold change (FC)” value [2] of the same compound?
Its value is 0.8.

What about the Activity [3] of the same compound?
The Activity was 18.43%.

And the Activity [4]?
The Activity was 21.05%.

And the Drug uptake [5]?
Its Drug uptake is “Active”.

What about the “fold change (FC)” value [6] of the same compound?
The value was 1.21.

What about the Activity [7] of the same compound?
Its Activity is 56.48%.

What about the “fold change (FC)” value [8] of the same compound?
The value was 1.39.

And the Activity [9]?
The Activity was 60.49%.

What about the Activity [10] of the same compound?
Its Activity is 12.51%.

And the Activity [11]?
The Activity was 49.96%.

What about the Drug uptake [12] of the same compound?
The Drug uptake was “Active”.

And the Activity [13]?
The Activity was 11.55%.

And the “fold change (FC)” value [14]?
Its value is 1.39.

What about the “fold change (FC)” value [15] of the same compound?
Its value is 0.66.

And the “fold change (FC)” value [16]?
Its value is 0.98.

What about the “fold change (FC)” value [17] of the same compound?
Its value is 1.12.

And the Drug uptake [18]?
The Drug uptake was “Not Active”.

What about the Activity [19] of the same compound?
Its Activity is “Active”.

What about the IC50 [20] of the same compound?
The IC50 was 2.9 µM.

And the IC50 [21]?
Its IC50 is 9.6 µM.

And the “fold change (FC)” value [22]?
Its value is 1.51.

What about the IC50 [23] of the same compound?
Its IC50 is 14.8 µM.

What about the Activity [24] of the same compound?
Its Activity is 50.5%.

What about the Activity [25] of the same compound?
Its Activity is 4.23%.

And the Activity [26]?
The Activity was 45.27%.

What about the “fold change (FC)” value [27] of the same compound?
Its value is 0.78.

What about the IC50 [28] of the same compound?
The IC50 was 12.1 µM.

What about the Activity [29] of the same compound?
The Activity was 8%.

What about the Activity [30] of the same compound?
Its Activity is “inactive”.

What about the Activity [31] of the same compound?
Its Activity is 64.23%.

And the Activity [32]?
The Activity was “Active”.

What about the Activity [33] of the same compound?
The Activity was 75.93%.

Reference: ChEMBL document CHEMBL5385881, “Design, synthesis, and discovery of Eudistomin Y derivatives as lysosome-targeted antiproliferation agents” (Eur J Med Chem, 2023)
